Reference: patent US10172951B2, “Dendrimer based nanodevices for therapeutic and imaging purposes” (priority 2009, dated 2019)
Entries after “also recorded” stand apart in the source; their conditions may differ.

Columns and labels:
[1] = GSH triggered NAC release from PAMAM dendrimer-NAC conjugates (RP-HPLC); type: physicochemical
Experimental: Appropriate amounts of PAMAM-S—S-NAC conjugate were dissolved in release media (Citrate or PBS buffers) to form a solution of 1 mg/ml PAMAM-S—S-NAC. One of the thiol containing molecules (GSH, Cys or BSA) was added to the conjugates to form 10 mM, 2 mM, 0.5 mM 0.1 mM or 2 μM overall thiol group concentrations and to initiate the release of NAC. All samples were run as triplicates for statistical analysis.
As control samples, conjugates were analyzed in both release media in the absence of reducing agents. The solutions were kept at 37° C. and stirred continuously. At predetermined time intervals, […] of samples were withdrawn and immediately analyzed with RP-HPLC and the concentrations of analytes were determined by using appropriate calibrations prepared under same conditions.
Dendrimer NAC conjugates were analyzed for their drug release mechanism and kinetics in the presence of GSH, Cys and BSA. Buffer solutions with pH 5 (Citrate Buffer) and pH 7.4 (Phosphate Buffered Saline) containing various concentrations of these thiol containing moieties were used in release studies.
All GSH concentrations studied were between average plasma (2 μM) and intracellular (2-10 mM) GSH levels. Various GSH concentrations were used in order to determine the GSH dependent release kinetics of the conjugate. The conjugate solutions contained 730 μM NAC in the conjugated form (1 mg/ml PAMAM-S—S-NAC) at the beginning of the release studies. GSH concentration in the release media was compared to the conjugated NAC concentrations in the release solutions for analysis of the release kinetics and mechanism.
The release of NAC from the conjugates was investigated in the presence of GSH at intracellular and extracellular concentrations. It was assumed that the release of NAC would occur by the disulfide exchange reaction. GSH and its oxidized form (GSSG) are responsible for forming the intracellular redox buffer. Intracellularly, GSH takes the role of attacking thiolate moiety and gets oxidized in the process while cleaving the existing disulfide bonds.
(§1) The conjugates were also analyzed in the absence of GSH to verify the stability of the disulfide linkage at physiological pH. […] The extent of the release of drug from both dendrimer-NAC conjugates was also analyzed at plasma and intracellular GSH concentrations. The conjugates and the GSH in required amounts were added to PBS solution, and the solution was analyzed at various time intervals by HPLC for up to 17 hours. UV absorbance peak areas were used to determine the concentrations of each of the species in the solution, based on appropriate calibration curves.

BV-2 cells [2] = test: ROS assay in LPS-activated BV-2 cells, 3 hours pre-treatment (Example 18); type: cell-based, mouse; settings: for H2O2 reduction (%): 72 hours LPS following 3 hours treatment; for effect on ROS production: 24 hours LPS following 3 hours pre-treatment, 0.5-8 mM
Experimental: (§2) BV-2 cells (passage 16) were seeded in 24 well plates at 10^5/mL/well and incubated for 24 hours. The medium was removed, and the cells were exposed to 100 ng/mL of LPS and varying concentrations of PAMAM-(COOH)46-(NAC)18 conjugate in 500 μL of serum free medium for 3 hours. The medium was removed again, and 500 μL of fresh serum free medium containing 100 ng/mL of LPS was added and incubated for 24 hours and 72 hours. Control treatment with varying concentrations of free NAC, positive control with 100 ng/mL of LPS induction, but negative control without any LPS induction and treatment were also studied. The culture medium was collected at specific time intervals of 24 hours and 72 hours, and spun at 1500 rpm for 5 min. The supernatant was stored at −80° C. for further assays.
H2O2 released from BV-2 cells was measured using 10-acetyl-3,7-dihydroxyphenoxazine (Amplex Red), following the manufacturer's instructions (Alexandre et al., 2006; Min et al., 2003). The procedure for cell culture and drug treatment was the same as described in previous section. The supernatant was mixed with 0.05 U/mL of horseradish peroxidase and 1 μM of Amplex Red in 96-well plates. After 30 min incubation, the fluorescence intensity was measured using spectrofluorometry. Excitation and emission wavelengths were 530 nm and 590 nm respectively.

BV-2 cells [3] = test: NO release (nitrite) assay in LPS-activated BV-2 cells (Example 18); type: cell-based, mouse; settings: for reduction of nitrite release: 24 hours LPS following 3 hours pre-treatment; for Nitrite reduction (%): 72 hours LPS following 3 hours treatment
Experimental: as §2
Production of NO was assayed by measuring the levels of nitrite, the stable NO metabolite, in the culture medium. Accumulation of nitrite in the medium was determined by colorimetric assay with Griess reagent system, which uses sulfanilamide and N-(1-Naphthyl)-ethylene diamine. From the treated cells in the medium, 100 μL of the supernatant was incubated with 50 μL of Griess reagent 1 (sulfanilamide) and 50 μL of Griess reagent 2 N-(1-Naphthyl)-ethylenediamine for 10 min at room temperature. The absorbance at 540 nm was then measured, and nitrite concentration was determined using a calibration curve prepared using nitrite standards.

BV-2 cells [4] = test: TNF-α ELISA in LPS-activated BV-2 cells (Example 18); type: cell-based, mouse; settings: 72 hours LPS following 3 hours treatment
Experimental: as §2
The procedure for cell culture and drug treatment was the same as described in previous section. TNF-α secretion was measured using an ELISA kit according to the manufacturer's instructions. In brief, 50 μL of supernatant from each sample was added in 96-well ELISA plates. Biotinylated antibody reagent was applied to each well and the plate was incubated at room temperature for 2 hours. After washing the plate with PBS-Tween 20, diluted streptavidin-HRP was added, and the plate was incubated at room temperature for 30 min. After washing the plate, the premixed TMB substrate solution was added. The plate was developed in the dark for 30 min, and read at 450 nm using a microplate reader. The concentration of TNF-α was calculated using murine rTNF-α as standard.

microglial cells = test: Cytotoxicity assay in microglial cells (Example 18); type: cell-based, mouse; settings: concentrations tested in vitro
Solubility in PBS/H2O = type: physicochemical
[5] = GSH triggered NAC release from PAMAM dendrimer-NAC conjugates (RP-HPLC); type: physicochemical; settings: absence of GSH, or GSH levels in the blood (20 μM)
[6] = Stability (oxidation) of free NAC and free GSH in PBS; type: physicochemical; settings: over 17 hours
Experimental: as §1

[7] = cited from earlier work
BV-2 cells [8] = test: ROS assay (H2O2, Amplex Red), PEG-NAC conjugates; type: cell-based, mouse; settings: highest concentration 5 mM
Experimental: (A) BV-2 cells (passage 22) were co-treated with 100 ng/mL of LPS and the indicated concentration of NAC, PEG-NAC conjugate 1 and its corresponding PEG for 72 hours. (B) BV-2 cells were co-treated with 100 ng/mL of LPS and the indicated concentration of NAC, PEG-NAC conjugate 2 and its corresponding PEG for 72 hours. The amount of ROS released into the media was measured using Amplex Red.
H2O2 released from BV-2 cells was measured using 10-acetyl-3,7-dihydroxyphenoxazine (Amplex Red), following the manufacturer's instructions. Briefly, the procedure for cell culture and drug treatment was the same as described in previous section. The supernatant was mixed with 0.05 U/mL of horseradish peroxidase and 1 μM of Amplex Red in 96-well plates. After 30 min incubation, the fluorescence intensity was measured using spectrofluorometry. Excitation and emission wavelengths were 530 nm and 590 nm.

BV-2 cells [9] = test: NO release assay (nitrite, Griess), PEG-NAC conjugates; type: cell-based, mouse; settings: highest concentration 5 mM
Experimental: (A) BV-2 cells (passage 22) were co-treated with 100 ng/mL of LPS and the indicated concentration of NAC, PEG-NAC conjugate 1 and its corresponding PEG for 72 hours. (B) BV-2 cells were co-treated with 100 ng/mL of LPS and the indicated concentration of NAC, PEG-NAC conjugate 2 its corresponding PEG for 72 hours. Nitrite in culture medium was measured using Griess reagent system.
Production of NO was assayed by measuring the levels of nitrite, the stable NO metabolite, in supernatant. Accumulation of nitrite in supernatant was determined by colorimetric assay with Griess reagent system, which uses sulfanilamide and N-(1-Naphthyl)-ethylene diamine. 100 μL of the supernatant was incubated with 50 μL of Griess reagent 1 (sulfanilamide) and 50 μL of Griess reagent 2 N-(1-Naphthyl)-ethylenediamine for 10 min at room temperature. The absorbance at 540 nm was then measured, and nitrite concentration was determined using a curve calibrated with nitrite standards.

[10] = system: Mouse microglial cell line (BV-2); test: In vitro cytotoxicity, MTT assay (Example 19); settings: 0.5, 2 and 8 mM
Description: In vitro cytotoxicity of the conjugate, dendrimer and NAC, at conditions similar to that used in the efficacy assays, was investigated by MTT assay. Mouse microglial cell line (BV-2) was obtained from Children's Hospital of Michigan Cell Culture Facility. These cells were used because the eventual in vivo applications seek to target microglial cells that become activated as a result of neuroinflammation.
The lipopolysaccharide (LPS) was used to activate the cells for the ROS assay. For the cytotoxicity study, the LPS treatment was continuous for 24 hours. For both groups, the LPS concentration used was 100 ng/ml. Three concentrations of NAC were studied: 0.5 mM, 2 mM and 8 mM. For the conjugate assays, the concentrations used corresponded to equivalent NAC doses of the free drug treatment groups. Similarly, the dendrimer assays were run by using dendrimer concentrations that were equivalent to conjugate treatments. Control groups included cells receiving only LPS and no other treatment and cells with no LPS or other treatment. The proportion of viable cells in the treated group was compared to that of negative control. The cell viability is expressed as mean±SD of three samples per group, and assessed by t-test.

BV-2 cells [11] = test: ROS assay, percent reduction in H2O2 in LPS-treated BV-2 cells (Example 19); type: cell-based, mouse; settings: co-treatment with LPS
Experimental: Cells were treated with lipopolysaccharide (LPS) to induce the production of ROS. The cells were treated with LPS (100 ng/ml) and either NAC, PAMAM-S—S-NAC, or free PAMAM-NH2 dendrimers at appropriate concentrations to study the efficacy of the conjugates for reducing the ROS concentrations. In order to quantify the efficacy of conjugates, H2O2 released from BV-2 cells (ROS) was measured using the Amplex Red Hydrogen Peroxide/Peroxidase Assay Kit using previously established procedures.

[12] = cited from earlier work; remark: listed apart in the source
[13] = 10 mM GSH, PBS pH 7.4, within 1 hour

PAMAM-CO-GS—S-NAC [PAMAM-(COOH)46-(NAC)18]
NAC payload in GS-S-NAC (NAC-GSH) form [1, 13]: 6%
NAC payload released in free form [1, 13]: 39%
total NAC release [1, 13]: 45%
NAC payload in GS-S-NAC form ([1]; 10 mM GSH, at 17 hours): 6%
free NAC content ([1]; 10 mM GSH, at 17 hours): 46%
NAC release ([1]; PBS buffer without GSH, 17 hours): did not release any of the NAC they carried
NAC payload found as GS-S-NAC or NAC-NAC ([1]; plasma GSH concentration (2 μM)): 1%
release of free NAC ([1]; plasma GSH concentration (2 μM), 17 hours): did not release any detectable levels of free NAC
H2O2 reduction (%) (BV-2 cells [2]; 0.5 mM): 25%
H2O2 reduction (%) (BV-2 cells [2]; 0.5 mM, listed as D-NAC): 30.81 ± 8.08%
H2O2 reduction (%) (BV-2 cells [2]; 2 mM): 51.13 ± 4.93%
H2O2 reduction (%) (BV-2 cells [2]; 8 mM): 68%
H2O2 reduction (%) (BV-2 cells [2]; 8 mM, listed as D-NAC): 68.75 ± 4.14%
effect on ROS production (BV-2 cells [2]): significant inhibition of ROS production at 2 mM and 8 mM
reduction of nitrite release (BV-2 cells [3]; 0.5 mM NAC equivalent): ~61%
Nitrite reduction (%) (BV-2 cells [3]; 0.5 mM): ~60%
Nitrite reduction (%) (BV-2 cells [3]; 0.5 mM, listed as D-NAC): 60.82 ± 6.05%
Nitrite reduction (%) (BV-2 cells [3]; 2 mM): 64.85 ± 5.12%
Nitrite reduction (%) (BV-2 cells [3]; 8 mM): 75.75 ± 1.85%
free drug dosage with comparable activity relative to conjugate dose (8 mM vs 0.5 mM) (BV-2 cells [3]; lowest conjugate dose 0.5 mM NAC): 16 ×
TNF-α reduction (%) (BV-2 cells [4]; 0.5 mM): ~67%
TNF-α reduction (%) (BV-2 cells [4]; 0.5 mM, listed as D-NAC): 67.46 ± 3.91%
TNF-α reduction (%) (BV-2 cells [4]; 2 mM): 74.43 ± 3.54%
TNF-α reduction (%) (BV-2 cells [4]; 8 mM): 77.37 ± 3.31%
cytotoxicity (microglial cells): relatively nontoxic; also recorded: non-toxic
Solubility in PBS/H2O (Solubility in PBS/H2O): Highly
drug release [5]: no drug release

N[C@@H](CCC(=O)N[C@@H](CS)C(=O)NCC(=O)O)C(=O)O [GSH, glutathione]
converted to oxidized form [6]: 25%
pKa of thiol group [7]: ~8.8

CC(=O)N[C@@H](CS)C(=O)O [NAC, N-acetyl-L-cysteine, reference compound]
reduction of H2O2 levels (BV-2 cells [8]): 30-40%
reduction of nitrite levels (BV-2 cells [9]): 30-40%
H2O2 reduction (%) (BV-2 cells [2]; 0.5 mM): 5.54 ± 6.38%
H2O2 reduction (%) (BV-2 cells [2]; 2 mM): 22.28 ± 8.33%
H2O2 reduction (%) (BV-2 cells [2]; 8 mM): 41.31 ± 2.33%
effect on ROS production (BV-2 cells [2]): did not affect ROS production
Nitrite reduction (%) (BV-2 cells [3]; 0.5 mM): 10.52 ± 6.43%
Nitrite reduction (%) (BV-2 cells [3]; 2 mM): 34.66 ± 3.22%
reduction of nitrite release (BV-2 cells [3]; 8 mM): ~70%
Nitrite reduction (%) (BV-2 cells [3]; 8 mM): 72.70 ± 5.56%
TNF-α reduction (%) (BV-2 cells [4]; 0.5 mM): 34.98 ± 2.43%
TNF-α reduction (%) (BV-2 cells [4]; 2 mM): 35.13 ± 4.44%
TNF-α reduction (%) (BV-2 cells [4]; 8 mM): 44.57 ± 4.35%
cytotoxicity (microglial cells): relatively nontoxic
cytotoxicity [10]: no cytotoxicity
reduction in H2O2 levels (BV-2 cells [11]; 0.5 mM NAC (equivalent), 24 hours): 6%
reduction in H2O2 levels (BV-2 cells [11]; 0.5 mM NAC (equivalent), 72 hours): 7%
reduction in H2O2 levels (BV-2 cells [11]; 8 mM, 24 hours): 57%
reduction in H2O2 levels (BV-2 cells [11]; 8 mM, 72 hours): 125%
converted to oxidized form [6]: 25%
biological half-life ([12]; in the blood stream): 1.5 hours
bioavailability ([12]; reduced by binding to plasma proteins): less than 8%
